Test results reported in patent publication US6034246A, “2-arylbenzazole compounds” (Cancer Research Campaign Technology Limited, priority 1995, dated 2000).

Assays:
[1] = estimation of toxicity in tumor-bearing nude mice (body weight, blood cells, survival); type: in vivo, mouse
Method: In one typical set of experiments, four human breast carcinomas xenotransplanted into female Ncr: nu/nu (Taconic, Germantown, U.S.A.) or male Bom: NMRI-nu/nu mice (Bomholtgaard, Ry, Denmark) were used for the evaluation of antitumor activity. Mice weighing 20-25 g at the start of experiments were held under sterile conditions at 24-26° C., 50% relative humidity and 12 hours light-dark rhythm in laminar flow shelves. The animals received autoclaved food and bedding; the drinking water was filtered and acidified (pH4.0).
The following breast carcinoma cell lines were used: BO; MCF-7 (NCI, U.S.A.); MT-1 and MT-3. The tumors BO and MCF-7 are ER^+ models: the carcinomas MT-1 and MT-3 are ER^- ones. Tumors were transplanted subcutaneously (s.c.) as pieces (2×2 mm) into the left flank of 5-8 nude mice/experimental group. Drug treatment was initiated when the tumors reached a diameter of 4-5 mm. Compounds were solubized with Tween 80 (maximum 10% of final volume) and suspended in saline. Suspensions were preparted freshly for each drug administration and injected in a volume of 0.2 mL/20 g body weight employing a once-weekly schedule (x3). Tumor size was measured twice weekly with a caliper. Median tumor volume/group was related to the first treatment day and expressed as Relative Tumor Volume (RTV). For the estimation of toxicity, body weight was determined twice weekly and the mean percentage body weight change (BCC) was calculated. In one experiment blood was obtained from the retroorbital venous plexus of mice and blood cells were determined with a Coulter counter (Model T41).

CH1 = assay: in vitro activity against human ovarian cell line CH1 (Table 2); type: cell-based; conditions: Homo sapiens
From the text: (§1) As usual the results are expressed in terms of IS50 values (concentration or dosage required to reduce cell growth or proliferation by 50%) calculated from dose-effect curves plotted for cultures of the cells in question.
(§2) In carrying out the in vitro studies, the cytotoxicity assays may be carried out by a method corresponding substantially to the following example:
(§3) Cells were maintained in a continuous logarithmic culture in Dublecco's medium supplemented with 10% fetal calf serum and penicillin (100 IU/ml) and streptomycin ([…]). The cells were mildly trypsinized for passage and for use in assays. On day zero, 100 μl of trypsinized tumor cells (1×10^4 /ml) were plated in the wells of 96-well flat-bottom microtiter plates. The plates were incubated for 2 days at 37° C. and 5% CO2 in air to allow the cells to adhere and resume exponential growth prior to the addition of drugs.
(§4) On day two 50 μl of the highest drug concentration was added to the wells of column 12 and from there serially diluted 3-fold to column 1 by serial transfer of 50 μl using an 8-channel micropipette. The final volume of column 1 was adjusted to 100 μl. No additions were made to the wells of rows A and B, which served as controls. The plates were further incubated for 5 days at 37° C. and 5% CO2 in air. Each compound was tested in duplicate.
(§5) The plates were kept at 4° C. overnight before reading on an inverted microscope equipped with an automated scanning stage. Fluorescence intensity was measured in arbitrary units by a photomultiplier. An HP-87 computer controlled the movement of the stage and also collected and processed the data from the multiplier.

SK-OV-3 = assay: in vitro activity against human ovarian cell line SK-OV-3 (Table 2); type: cell-based
From the text: (§6) Tables 1 to 4 at the end of the present description show in vitro test results obtained in various sets of experiments for the cytotoxic activity of several of the benzazole compounds concerned, including also for reference results for the compound CJM 126 and comparative results for compound DF129, when tested against a range of tumor cell lines which includes ovarian, lung and certain colon and renal cancer cells from the National Cancer Institute (USA) collection. As usual the results are expressed in terms of IS50 values (concentration or dosage required to reduce cell growth or proliferation by 50%) calculated from dose-effect curves plotted for cultures of the cells in question.
(§7) In carrying out the in vitro studies, the cytotoxicity assays may be carried out by a method corresponding substantially to the following example: […]
(§8) On day 7 the test was terminated by the addition of 100 μl saline containing 0.002% w/v propidium iodide (Sigma), 0.3% drawing ink (Staedtler "Marsmatic 745"--Trade Mark) and 0.5% Triton X-100. The plates were kept at 4° C. overnight before reading on an inverted microscope equipped with an automated scanning stage. Fluorescence intensity was measured in arbitrary units by a photomultiplier. […]

L23/P = assay: in vitro inhibition of growth of human lung cancer cell line L23/P (Table 1); type: cell-based
From the text: as §6, §2, §3, §4
(§9) On day 7 the test was terminated by the addition of 100 μl saline containing 0.002% w/v propidium iodide (Sigma), 0.3% drawing ink (Staedtler "Marsmatic 745"--Trade Mark) and 0.5% Triton X-100. The plates were kept at 4° C. overnight before reading on an inverted microscope equipped with an automated scanning stage. Fluorescence intensity was measured in arbitrary units by a photomultiplier. An HP-87 computer controlled the movement of the stage and also collected and processed the data from the multiplier.
(§10) For each compound tested a dose-response curve was obtained and the IC50 value (the drug concentration at 50% inhibition of cell growth) was calculated.

LX4 = assay: in vitro inhibition of growth of human lung cancer cell line LX4 (Table 1); type: cell-based
From the text: as §6, §2, §3, §4, §9, §10

Renal TK-10 = assay: in vitro inhibitory activity against human renal cell line TK-10 (Table 3); type: cell-based
From the text: as §6, §7, §8

[2] = tested on: human breast cancer cell lines; assay: in vitro inhibition of human breast cancer cell lines; type: cell-based; conditions: words, Table 4
From the text: as §6, §2, §3, §4, §9, §10

NCI-H226 = assay: in vitro inhibition of growth of human lung cancer cell line NCI-H226 (Table 1); type: cell-based
From the text: as §6, §7, §8

IGR-OV1 = assay: in vitro activity against human ovarian cell line IGR-OV1 (Table 2); type: cell-based; conditions: IGROV-1
From the text: as §6, §7, §8

MDA 468 = assay: in vitro inhibitory activity against human breast tumour cell line MDA 468 (Table 4); type: cell-based; conditions: initial seeding density 2.5 × 10^2 cells/well
From the text: as §6, §2, §3, §4, §9, §10
(§11) *Initial seeding density 2.5 × 10^2 cells/well

CH1-cisR = assay: in vitro activity against human ovarian cell line CH1-cisR (Table 2); type: cell-based; conditions: Homo sapiens, CH1cisR
From the text: as §1, §2, §3, §4, §5

MOR/R = assay: in vitro inhibition of growth of human lung cancer cell line MOR/R (Table 1); type: cell-based; conditions: MOR/R (multidrug resistant line)
From the text: as §6, §2, §3, §4, §9, §10

Prostatic DU 145 = assay: in vitro inhibitory activity against human prostatic cell line DU 145 (Table 3); type: cell-based
From the text: as §6, §7, §8

A2780 = assay: in vitro activity against human ovarian cell line A2780 (Table 2); type: cell-based; conditions: Homo sapiens; A2780 (parental line)
From the text: as §1, §2, §3, §4, §5

L23/R = assay: in vitro inhibition of growth of human lung cancer cell line L23/R (Table 1); type: cell-based
From the text: as §6, §2, §3, §4, §9, §10

MCF-7wt = assay: in vitro inhibitory activity against human breast tumour cell line MCF-7wt (Table 4); type: cell-based; conditions: initial seeding density 2.5 × 10^2 cells/well
From the text: as §6, §2, §3, §4, §9, §10, §11

Renal ACHN = assay: in vitro inhibitory activity against human renal cell line ACHN (Table 3); type: cell-based
From the text: as §6, §7, §8

MOR/CPR = assay: in vitro inhibition of growth of human lung cancer cell line MOR/CPR (Table 1); type: cell-based; conditions: for IC50: Homo sapiens, MOR/CPR (cisplatin resistant line); for activity against MOR/CPR relative to MOR/P and MOR/R: words, Table 1
From the text: as §6, §2, §3, §4, §9, §10

H69/P = assay: in vitro inhibition of growth of human lung cancer cell line H69/P (Table 1); type: cell-based
From the text: as §6, §2, §3, §4, §9, §10

OVCAR-4 = assay: in vitro activity against human ovarian cell line OVCAR-4 (Table 2); type: cell-based
From the text: as §6, §7, §8

Colon HCC-2998 = assay: in vitro inhibitory activity against human colon cell line HCC-2998 (Table 3); type: cell-based
From the text: as §6, §7, §8

[3] = MCF-7, optimum dose 200 mg/Kg/inj i.p., qd 12, 19, 26
[4] = MCF-7, optimum dose 12.5 mg/Kg/inj i.p., qd 12, 19, 26

Row | SMILES | IC50 (CH1) [µM] | IC50 (SK-OV-3) [µM] | IC50 (L23/P) [µM] | IC50 (LX4) [µM] | IC50 (Renal TK-10) [µM] | potency against breast cancer cells relative to CJM 126 [2] | IC50 (NCI-H226) [µM] | IC50 (IGR-OV1) [µM] | IC50 (MDA 468) [µM] | IC50 (CH1-cisR) [µM] | IC50 (MOR/R) [µM] | IC50 (Prostatic DU 145) [µM] | IC50 (A2780) [µM] | IC50 (L23/R) [µM] | IC50 (MCF-7wt) [µM] | IC50 (Renal ACHN) [µM] | IC50 (MOR/CPR) [µM] | activity against MOR/CPR relative to MOR/P and MOR/R (MOR/CPR) | IC50 (H69/P) [µM] | IC50 (OVCAR-4) [µM] | also measured
1 | Nc1ccc(-c2nc3ccccc3s2)cc1I [DF129, 2-(4'-amino-3'-iodophenyl)benzothiazole] | 30 | > 100 | 0.1 | > 10 | < 1 | more potent than even the compound CJM 126 | 0.3 | < 0.1 | < 0.001 | 83 | 0.1 | 52 | > 100 | > 10 | < 0.001 | > 100 | 0.025 | more active against the MOR/CPR line than against the two other lines | > 10 | 0.2 | BWC (body weight change) ([1]; BO, optimum dose 200 mg/Kg/inj i.p., qd 27, 34, 41 (Table 6)): -14%; BWC (body weight change) [1, 3]: -14%; Platelets (% of controls) [1, 3]: 106 % of controls; WBC, white blood cells (% of controls) [1, 3]: 112 % of controls; IC50 (Colon HCC-2998): < 1 µM
2 | Cc1cc(-c2nc3ccccc3s2)ccc1N [DF203, 2-(4'-amino-3'-methylphenyl)benzothiazole] | 19 | > 100 | 10 | > 10 | < 1 | more potent than even the compound CJM 126 | 0.3 | < 0.1 | < 0.001 | 42 | 0.07 | > 100 | > 100 | > 10 | < 0.001 | ~100 | 0.04 | more active against the MOR/CPR line than against the two other lines | > 10 | < 1 | BWC (body weight change) ([1]; BO, optimum dose 25 mg/Kg/inj i.p., qd 27, 34, 41): -9%; BWC (body weight change) [1, 4]: -12%; Platelets (% of controls) [1, 4]: 108 % of controls; WBC, white blood cells (% of controls) [1, 4]: 100 % of controls; overall change in white blood cell or platelet counts ([1]; MCF-7 test, words): no overall change; BWC (body weight change) ([1]; MT-1, optimum dose 6.25 mg/Kg/inj i.p., qd 7, 14, 21): -3%; BWC (body weight change) ([1]; MT-3, optimum dose 12.5 mg/Kg/inj i.p., qd 7, 14, 21): -3%; bone marrow toxicity ([1]; mouse, in vivo): not dose-limiting; survivors ([1]; mouse, in vivo, 25 mg/kg): only one survivor; toxicity ([1]; mouse, in vivo, 25 mg/kg): toxic; IC50 (Colon HCC-2998): < 1 µM
